Each structure is given as a SMILES string.

The assay deals with Multidrug resistance associated protein (Homo sapiens) (UniProt Q96QA9). Description: TP_TRANSPORTER: uptake in membrane vesicles from HEK293T cells. The format is functional, cell membranes. The settings on record: HEK293; Membrane vesicle.
Sequence of Multidrug resistance associated protein (Homo sapiens) (Q96QA9 as listed by the source): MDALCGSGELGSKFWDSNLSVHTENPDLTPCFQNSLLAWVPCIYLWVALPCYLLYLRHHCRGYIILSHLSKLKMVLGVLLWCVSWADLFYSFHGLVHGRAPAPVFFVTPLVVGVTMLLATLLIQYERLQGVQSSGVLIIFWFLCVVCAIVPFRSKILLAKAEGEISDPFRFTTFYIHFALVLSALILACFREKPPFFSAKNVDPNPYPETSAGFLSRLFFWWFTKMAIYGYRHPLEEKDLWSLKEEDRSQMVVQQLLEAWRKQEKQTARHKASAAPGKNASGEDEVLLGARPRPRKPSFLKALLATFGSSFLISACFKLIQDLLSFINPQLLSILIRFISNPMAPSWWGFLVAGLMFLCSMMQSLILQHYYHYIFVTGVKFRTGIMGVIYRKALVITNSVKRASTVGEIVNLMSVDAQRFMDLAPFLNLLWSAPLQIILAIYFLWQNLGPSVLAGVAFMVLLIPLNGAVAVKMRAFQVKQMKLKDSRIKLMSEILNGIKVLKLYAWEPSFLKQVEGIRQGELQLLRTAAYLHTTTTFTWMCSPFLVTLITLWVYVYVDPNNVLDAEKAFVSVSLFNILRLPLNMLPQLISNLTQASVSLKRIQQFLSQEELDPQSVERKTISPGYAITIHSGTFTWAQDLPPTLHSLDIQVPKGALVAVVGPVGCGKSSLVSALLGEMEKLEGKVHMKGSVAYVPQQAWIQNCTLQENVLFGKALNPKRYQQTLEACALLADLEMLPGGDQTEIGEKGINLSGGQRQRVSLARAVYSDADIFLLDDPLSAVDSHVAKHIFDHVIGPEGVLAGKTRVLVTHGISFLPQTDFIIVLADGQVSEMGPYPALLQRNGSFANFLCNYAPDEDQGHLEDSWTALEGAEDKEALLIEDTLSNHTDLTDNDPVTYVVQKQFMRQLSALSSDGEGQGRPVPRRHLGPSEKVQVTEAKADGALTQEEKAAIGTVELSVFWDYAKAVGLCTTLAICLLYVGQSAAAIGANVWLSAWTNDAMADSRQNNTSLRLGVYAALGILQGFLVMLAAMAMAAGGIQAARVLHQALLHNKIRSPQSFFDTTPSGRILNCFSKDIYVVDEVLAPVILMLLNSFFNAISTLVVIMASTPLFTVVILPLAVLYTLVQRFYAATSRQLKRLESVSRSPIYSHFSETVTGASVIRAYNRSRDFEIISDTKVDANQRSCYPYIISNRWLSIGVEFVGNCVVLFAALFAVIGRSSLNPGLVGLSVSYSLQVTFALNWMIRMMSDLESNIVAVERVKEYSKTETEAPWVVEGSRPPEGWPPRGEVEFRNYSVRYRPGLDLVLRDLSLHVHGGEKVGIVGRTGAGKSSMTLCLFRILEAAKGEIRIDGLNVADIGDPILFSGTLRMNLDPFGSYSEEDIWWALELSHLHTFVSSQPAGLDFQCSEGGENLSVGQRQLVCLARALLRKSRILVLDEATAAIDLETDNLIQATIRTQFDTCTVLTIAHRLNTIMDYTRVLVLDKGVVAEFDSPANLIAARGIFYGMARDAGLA

Turning to `CN(Cc1cnc2nc(N)nc(N)c2n1)c1ccc(C(=O)N[C@@H](CCC(=O)O)C(=O)O)cc1`, the Activity entry was “substrate [+]”.
With `CCCCC/C=C\C\C=C/C=C/C=C/[C@@H](SC[C@@H](NC(=O)CC[C@H](N)C(=O)O)C(=O)NCC(=O)O)[C@@H](O)CCCC(=O)O`, the Activity result is “substrate [+]”.

For the origin of these results see ChEMBL document CHEMBL2073892, “Substitution of Trp1242 of TM17 alters substrate specificity of human multidrug resistance protein 3” (Am J Physiol Gastrointest Liver Physiol, 2003).
